# Laboratory results published in ChEMBL document CHEMBL5537177, “Discovery of Potent Antimalarial Type II Kinase Inhibitors with Selectivity over Human Kinases” (J Med Chem, 2024).
# Active and inactive are the calls of the source. The calls are words filed in the database; no cut-off is given here.
# Columns and labels:
# [1] = Selectivity index, ratio of EC50 for human HepG2 cells to EC50 for multidrug-resistant Plasmodium falciparum Dd2 at ring stage infected in A+ erythrocytes; type: toxicity, cell-based; conditions: read-out: Ratio EC50
# Plasmodium falciparum [2] = test: Resistance index, ratio of EC50 for multidrug-resistant Plasmodium falciparum Dd2 at ring stage infected in A+ erythrocytes to EC50 for drug-sensitive Plasmodium falciparum 3D7 at ring stage infected in A+ erythrocytes; type: organism-based; conditions: human
# [3] = Selectivity index, ratio of EC50 for human MCF7 cells to EC50 for multidrug-resistant Plasmodium falciparum Dd2 at ring stage infected in A+ erythrocytes; type: toxicity, cell-based; conditions: read-out: Ratio EC50
# Plasmodium falciparum [4] = test: Antiplasmodial activity against drug-sensitive Plasmodium falciparum 3D7 at ring stage infected in A+ erythrocytes assessed as parasite growth reduction incubated for 72 hrs by SYBR Green I dye based analysis; type: functional, organism-based; conditions: 3D7, Erythrocyte
# [5] = (§1) Cytotoxicity against human HepG2 cells assessed as reduction in cell viability incubated for 48 hrs by MTS assay; type: toxicity, cell-based; conditions: human, HepG2 cells
# [6] = (§2) Cytotoxicity against human MCF7 cells assessed as reduction in cell viability incubated for 48 hrs by MTS assay; type: toxicity, cell-based; conditions: human, MCF7 cells
# Plasmodium falciparum [7] = test: Antiplasmodial activity against multidrug-resistant Plasmodium falciparum Dd2 at ring stage infected in A+ erythrocytes assessed as parasite growth reduction incubated for 72 hrs by SYBR Green I dye based analysis; type: functional, organism-based; conditions: Dd2, Erythrocyte
# Plasmodium falciparum [8] = test: microbe, parasite or virus in culture; conditions: Dd2, 72 h
# Description: Antiplasmodial activity against asynchronous Plasmodium falciparum Dd2 assessed as parasite growth reduction incubated for 72 hrs by SYBR Green I dye based analysis
# Ephrin type-A receptor 2 = Ephrin type-A receptor 2 (Homo sapiens, UniProt P29317); test: Inhibition of human EphA2 by FRET assay
# Plasmodium falciparum [9] = test: (§3) Antimalarial activity against artemisinin-resistant/piperaquine-sensitive synchronized early ring stage Plasmodium falciparum IPC 5202 (MRA-1240) clinical isolate assessed as decrease in parasite survival at ring stage at 10 times EC50 treated for 6 to 48 hrs followed by compound removal measured after 72 hrs by geimsa staining based microscopy; type: functional, organism-based
# Plasmodium falciparum [10] = test: Antimalarial activity against synchronous blood-stage Plasmodium falciparum 3D7 assessed as parasite clearance time at 10 times EC50 treated every 24 hrs for 120 hrs followed by compound washout and subsequent addition of RBCs measured after 21 days by parasite reduction ratio assay; type: functional
# Plasmodium falciparum [11] = test: as §3, with “artemisinin-sensitive” for “artemisinin-resistant/piperaquine-sensitive”, “5188 (MRA-1239)” for “5202 (MRA-1240)”, “6” for “6 to 48”; type: functional, organism-based
# [12] = Metabolic stability in mouse liver microsomes assessed as half life; type: ADME, Liver cells
# Plasmodium falciparum [13] = test: as §3, with “artemisinin/piperaquine-resistant” for “artemisinin-resistant/piperaquine-sensitive”, “6261 (MRA-1284)” for “5202 (MRA-1240)”, “6” for “6 to 48”; type: functional, organism-based
# [14] = Metabolic stability in mouse liver microsomes assessed as intrinsic clearance; type: ADME, Liver cells
# Plasmodium falciparum [15] = test: Antimalarial activity against synchronized early ring stage Plasmodium falciparum 3D7 (MRA-152) clinical isolate assessed as decrease in parasite survival at ring stage at 10 times EC50 treated for 6 hrs followed by compound removal measured after 72 hrs by geimsa staining based microscopy; type: functional, organism-based
# HepG2 = test: as §1; type: toxicity, cell-based; conditions: hepg2
# Plasmodium falciparum [16] = test: as §3, with “artemisinin/piperaquine-resistant” for “artemisinin-resistant/piperaquine-sensitive”, “6261 (MRA-1284)” for “5202 (MRA-1240)”; type: functional, organism-based
# MCF7 = test: as §2; type: toxicity, cell-based; conditions: mcf7
# Plasmodium falciparum [17] = test: as §3, with “artemisinin-resistant” for “artemisinin-resistant/piperaquine-sensitive”, “6” for “6 to 48”; type: functional, organism-based
# Plasmodium falciparum [18] = test: (§4) Antimalarial activity against synchronized early ring stage Plasmodium falciparum 3D7 (MRA-152) clinical isolate assessed as decrease in parasite survival at ring stage at 10 times EC50 treated for 48 hrs followed by compound removal measured after 72 hrs by geimsa staining based microscopy; type: functional, organism-based
# Plasmodium falciparum [19] = test: Antimalarial activity against synchronous blood-stage Plasmodium falciparum 3D7 assessed as duration of lag phase at 10 times EC50 treated every 24 hrs for 120 hrs followed by compound washout and subsequent addition of RBCs measured after 21 days by parasite reduction ratio assay; type: functional
# Plasmodium falciparum [20] = test: as §4, with “against artemisinin/piperaquine-resistant” for “against”, “IPC 6261 (MRA-1284)” for “3D7 (MRA-152)”; type: functional, organism-based
# Plasmodium falciparum [21] = test: Antimalarial activity against synchronous blood-stage Plasmodium falciparum 3D7 assessed as log of parasite reduction ratio at 10 times EC50 treated every 24 hrs for 120 hrs followed by compound washout and subsequent addition of RBCs measured after 21 days; type: functional
# Plasmodium falciparum [22] = test: Antimalarial activity against synchronized early ring stage Plasmodium falciparum 3D7 (MRA-152) clinical isolate assessed as decrease in parasite survival at ring stage at 10 times EC50 treated for 6 to 48 hrs followed by compound removal measured after 72 hrs by geimsa staining based microscopy; type: functional, organism-based
# Plasmodium falciparum [23] = test: as §3, with “artemisinin/piperaquine-sensitive” for “artemisinin-resistant/piperaquine-sensitive”, “5188 (MRA-1239)” for “5202 (MRA-1240)”; type: functional, organism-based
# Plasmodium falciparum [24] = test: as §3, with “artemisinin-resistant” for “artemisinin-resistant/piperaquine-sensitive”, “for” for “for 6 to”; type: functional, organism-based
# Plasmodium falciparum [25] = test: as §4, with “against artemisinin-sensitive” for “against”, “IPC 5188 (MRA-1239)” for “3D7 (MRA-152)”; type: functional, organism-based
# [26] = Half life in Balb/C mouse at 3 mg/kg, iv; type: ADME, organism-based; conditions: in vivo
# Plasmodium falciparum [27] = test: Antimalarial activity against Plasmodium falciparum harboring PI4K S1320L mutation assessed as reduction in parasitemia incubated for 72 hrs by SYBR green I dye based analysis; type: functional, organism-based
# Plasmodium falciparum [28] = test: microbe, parasite or virus in culture; conditions: Dd2, 72 h; remark: listed apart in the source
# Description: Antimalarial activity against wild-type Plasmodium falciparum Dd2 assessed as reduction in parasitemia incubated for 72 hrs by SYBR green I dye based analysis
# [29] = Volume of distribution at steady state in Balb/C mouse at 3 mg/kg, iv; type: ADME, organism-based; conditions: in vivo, read-out: Vdss
# Plasmodium falciparum [30] = test: Antimalarial activity against Plasmodium falciparum harboring CARL I1139K mutation assessed as reduction in parasitemia incubated for 72 hrs by SYBR green I dye based analysis; type: functional, organism-based
# Plasmodium falciparum [31] = test: Antimalarial activity against Plasmodium falciparum harboring AcAS A597V mutation assessed as reduction in parasitemia incubated for 72 hrs by SYBR green I dye based analysis; type: functional, organism-based
# Plasmodium falciparum [32] = test: Antimalarial activity against Plasmodium falciparum at ring stage infected erythrocytes assessed as reduction in parasitemia measured after 60 hrs by flow cytometry; type: functional, organism-based; conditions: Erythrocyte
# Sequence of Ephrin type-A receptor 2 (P29317 whole entry): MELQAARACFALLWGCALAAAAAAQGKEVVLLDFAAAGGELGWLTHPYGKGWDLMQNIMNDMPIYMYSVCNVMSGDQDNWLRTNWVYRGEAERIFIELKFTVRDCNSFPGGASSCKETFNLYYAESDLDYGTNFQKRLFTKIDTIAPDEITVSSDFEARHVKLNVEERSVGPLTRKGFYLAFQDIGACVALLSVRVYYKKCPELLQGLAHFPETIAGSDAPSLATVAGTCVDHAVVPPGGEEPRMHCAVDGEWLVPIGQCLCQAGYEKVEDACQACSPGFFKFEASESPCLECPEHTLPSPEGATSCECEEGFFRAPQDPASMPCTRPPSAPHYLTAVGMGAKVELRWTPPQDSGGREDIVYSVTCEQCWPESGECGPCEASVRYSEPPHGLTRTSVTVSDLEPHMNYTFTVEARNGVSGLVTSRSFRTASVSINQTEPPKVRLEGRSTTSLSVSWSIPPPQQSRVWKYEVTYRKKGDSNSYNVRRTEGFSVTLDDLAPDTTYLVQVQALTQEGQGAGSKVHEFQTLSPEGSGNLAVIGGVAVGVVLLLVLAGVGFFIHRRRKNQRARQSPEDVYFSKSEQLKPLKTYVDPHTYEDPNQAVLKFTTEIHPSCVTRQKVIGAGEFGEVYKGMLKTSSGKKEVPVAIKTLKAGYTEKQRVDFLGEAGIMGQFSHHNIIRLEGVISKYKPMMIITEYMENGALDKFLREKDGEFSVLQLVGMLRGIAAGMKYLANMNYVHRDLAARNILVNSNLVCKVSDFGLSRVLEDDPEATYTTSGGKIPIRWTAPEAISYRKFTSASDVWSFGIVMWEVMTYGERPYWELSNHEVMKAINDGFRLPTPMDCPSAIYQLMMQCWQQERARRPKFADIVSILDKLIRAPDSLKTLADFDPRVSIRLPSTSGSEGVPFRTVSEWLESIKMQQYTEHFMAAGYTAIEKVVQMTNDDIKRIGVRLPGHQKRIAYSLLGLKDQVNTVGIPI
compound,measurement,setting,value
CCN1CCN(Cc2ccc(NC(=O)c3cc(C)cc(NC(=O)c4cncc(-c5cccs5)c4)c3)cc2C(F)(F)F)CC1,selectivity ratio,[1],8.6
same,Ratio EC50,Plasmodium falciparum [2],1.6
same,selectivity ratio,[3],14
same,EC50,Plasmodium falciparum [4],0.235 µM
same,EC50 at 48 h,[5],3.2 µM
same,EC50 at 48 h,[6],5.22 µM
same,EC50,Plasmodium falciparum [7],0.372 µM
CCN1CCN(Cc2ccc(NC(=O)c3cc(NC(=O)c4cncc(-c5cccs5)c4)cc(OC)c3)cc2C(F)(F)F)CC1,EC50,Plasmodium falciparum [8],0.341 µM
same,IC50,Ephrin type-A receptor 2,> 10 µM
CCN1CCN(Cc2ccc(NC(=O)c3cc(Cl)cc(NC(=O)c4cncc(-c5ccc(C#N)cc5)c4)c3)cc2C(F)(F)F)CC1,EC50,Plasmodium falciparum [9],0.0415 µM
same,selectivity ratio,[1],41
same,Ratio EC50,Plasmodium falciparum [2],1
same,T99.9%,Plasmodium falciparum [10],< 32 h
same,Activity,Plasmodium falciparum [11],inactive
same,t1/2,[12],0.708 h
same,Activity,Plasmodium falciparum [13],inactive
same,intrinsic clearance,[14],16 µL/min/mg
same,Activity,Plasmodium falciparum [15],inactive
same,selectivity ratio,[3],61
same,EC50,Plasmodium falciparum [4],0.036 µM
same,EC50,HepG2,1.46 µM
same,EC50,Plasmodium falciparum [16],0.0649 µM
same,EC50,MCF7,2.19 µM
same,Activity,Plasmodium falciparum [17],inactive
same,Activity,Plasmodium falciparum [18],Active
same,Time,Plasmodium falciparum [19],0 h
same,Activity,Plasmodium falciparum [20],Active
same,log(activity),Plasmodium falciparum [21],5.12
same,EC50,Plasmodium falciparum [22],0.0535 µM
same,EC50,Plasmodium falciparum [7],0.036 µM
same,EC50,Plasmodium falciparum [23],0.0439 µM
same,Activity,Plasmodium falciparum [24],Active
same,Activity,Plasmodium falciparum [25],Active
CC1(C)c2nc(-c3ccc(F)cc3)c(Nc3ccc(Cl)cc3)n2CCN1C(=O)CN,half-life,[26],8.9 h
same,EC50,Plasmodium falciparum [27],0.0019 µM
same,EC50,Plasmodium falciparum [28],0.0018 µM
same,Vd,[29],11.8 L/kg
same,EC50,Plasmodium falciparum [30],1.39 µM
same,EC50,Plasmodium falciparum [31],0.0011 µM
Cc1ccc(NC(=O)c2ccc(CN3CC[C@H](N(C)C)C3)c(C(F)(F)F)c2)cc1Nc1nccc(-c2cncnc2)n1 [BAFETINIB],EC50,Plasmodium falciparum [32],1.3 µM
Cc1cn(-c2cc(NC(=O)c3ccc(C)c(Nc4nccc(-c5cccnc5)n4)c3)cc(C(F)(F)F)c2)cn1 [NILOTINIB],EC50,Plasmodium falciparum [32],< 1 µM
C[C@@H]1CC[C@H]2[C@@H](C)C(=O)O[C@@H]3O[C@@]4(C)CC[C@@H]1[C@]32OO4 [ARTEMISININ],EC50,Plasmodium falciparum [27],0.0052 µM
same,EC50,Plasmodium falciparum [28],0.0029 µM
same,EC50,Plasmodium falciparum [30],0.004 µM
same,EC50,Plasmodium falciparum [31],0.0051 µM
CNC(=O)c1ccc(-c2cnc3cnc(C(=O)N(C)c4ccc(Cl)cc4)cn23)cc1,EC50,Plasmodium falciparum [27],0.0676 µM
same,EC50,Plasmodium falciparum [28],0.006 µM
same,EC50,Plasmodium falciparum [30],0.0098 µM
same,EC50,Plasmodium falciparum [31],0.0042 µM
CCN1CCN(Cc2ccc(NC(=O)c3ccc(C)c(NC(=O)c4cncc(-c5cccs5)c4)c3)cc2C(F)(F)F)CC1,EC50,Plasmodium falciparum [8],3.91 µM
same,IC50,Ephrin type-A receptor 2,0.011 µM
O=C1C(O)=C([C@H]2CC[C@H](c3ccc(Cl)cc3)CC2)C(=O)c2ccccc21 [ATOVAQUONE],T99.9%,Plasmodium falciparum [10],101 h
same,Time,Plasmodium falciparum [19],72 h
same,log(activity),Plasmodium falciparum [21],2.95
CCN1CCN(Cc2ccc(NC(=O)c3cc(Cl)cc(NC(=O)c4cncc(-c5ccco5)c4)c3)cc2C(F)(F)F)CC1,selectivity ratio,[1],106
same,Ratio EC50,Plasmodium falciparum [2],0.9
same,t1/2,[12],0.968 h
same,intrinsic clearance,[14],12 µL/min/mg
same,selectivity ratio,[3],127
same,EC50,Plasmodium falciparum [4],0.058 µM
same,EC50,HepG2,5.41 µM
same,EC50,MCF7,6.49 µM
same,EC50,Plasmodium falciparum [7],0.051 µM
O=C(NNC(=O)c1csnn1)c1ccc(Cl)cc1,EC50,Plasmodium falciparum [27],0.106 µM
same,EC50,Plasmodium falciparum [28],0.182 µM
same,EC50,Plasmodium falciparum [30],0.174 µM
same,EC50,Plasmodium falciparum [31],> 50 µM
CCN1CCN(Cc2ccc(NC(=O)c3cc(Cl)cc(NC(=O)c4cccnc4)c3)cc2C(F)(F)F)CC1,selectivity ratio,[1],71
same,Ratio EC50,Plasmodium falciparum [2],1.2
same,t1/2,[12],0.252 h
same,intrinsic clearance,[14],46 µL/min/mg
same,selectivity ratio,[3],75
same,EC50,Plasmodium falciparum [4],0.127 µM
same,EC50,HepG2,10.4 µM
same,EC50,MCF7,11 µM
same,EC50,Plasmodium falciparum [7],0.147 µM
CCN1CCN(Cc2ccc(NC(=O)c3cc(Cl)cc(NC(=O)c4cncc(-c5cccs5)c4)c3)cc2)CC1,selectivity ratio,[1],108
same,Ratio EC50,Plasmodium falciparum [2],1.1
same,t1/2,[12],1.09 h
same,intrinsic clearance,[14],11 µL/min/mg
same,selectivity ratio,[3],127
same,EC50,Plasmodium falciparum [4],0.076 µM
same,EC50,HepG2,8.77 µM
same,EC50,MCF7,10.3 µM
same,EC50,Plasmodium falciparum [7],0.081 µM
C[C@H]1[C@@H](O)O[C@@H]2O[C@@]3(C)CC[C@H]4[C@H](C)CC[C@@H]1[C@@]24OO3 [ARTENIMOL],T99.9%,Plasmodium falciparum [10],31 h
same,Time,Plasmodium falciparum [19],0 h
same,log(activity),Plasmodium falciparum [21],3.93
